Read-outs that look alike come from different tables or passages of the source.
How the values were obtained:
[1] = test system: HO-1 in SH-SY5Y cells; experiment: Western blot of HO-1 expression; format: cell-based, human; conditions: acetylshikonin 12 h, H2O2 500 μM 1 h
Experimental: (§1) Proteins in the total cell lysate were separated by 10% SDS polyacrylamide gel electrophoresis and electrotransferred to a polyvinylidene difluoride membrane (Immobilon-P membrane; Millipore, Bedford, MA, USA). After the blot was blocked in a solution of 5% bovine serum albumin, membrane was incubated overnight with primary antibodies against Bcl-2, Bax, Caspase-3, p53, HO-1, or beta-actin followed by incubation with horseradish peroxidase-conjugated secondary antibodies for 1 h. Specific bands were detected with ECL-plus western blotting detection reagent (GE Healthcare Bio-Sciences) and photographed with FujiFilm LAS-3000 (Fujifilm, Tokyo, Japan).

[2] = test system: SH-SY5Y cells; experiment: Intracellular ROS measurement (H2DCF-DA); format: cell-based, human; conditions: acetylshikonin 5 and 10 μM 12 h, H2O2 500 μM 2 h
Experimental: (§2) The cells were treated with desired concentration of acetylshikonin for 12 hours, and then the cells were stained with H2DCF-DA (10 μM) for 30 min. After 30 min staining, cells were stimulated with H2O2 (500 μM) for 2 h, and the fluorescence intensity of H2DCF-DA was measured/detected by a fluorescence spectrophotometer (M1000, TECAN, Austria GmbH, Austria) using excitation/emission of 485/530 nm and a fluorescence microscope (Nikon Live Cell Imaging System Ti-E, Japan) using excitation/emission of 490/530 nm, respectively. Fluorescence intensity of each group was normalized to the control group.

[3] = test system: HO-1 in PC12 cells; experiment: Western blot of HO-1 expression; format: cell-based, rat; conditions: acetylshikonin 12 h, H2O2 500 μM 1 h
Experimental: as §1

[4] = test system: SH-SY5Y cells; experiment: Cytotoxicity test by MTT without H2O2; format: cell-based, human; conditions: 10 μM, 12 h, no H2O2
Experimental: (§3) MTT colorimetric assay was performed to determine the cell viability. Cells were seeded in 96-well plates at a density of 5 × 10^3 cells/well and treated with test chemicals at desired concentration at 37°C for 12 hours. Subsequently, cells were stimulated with H2O2 (500 μM) for 4 hours. After the exposure period, the cells were incubated with 20 μL MTT (5 mg/mL) for 4 h. The cells were eluted with DMSO and quantified with a spectrophotometer (Ultramark Microplate Reader, Bio-Rad) at a wavelength of 590 nm.
(§4) Figure 1 Potential AChE inhibitors of natural products attenuated H2O2-induced cell death in both SH-SY5Y and PC12 cells. SH-SY5Y (a) or PC12 (b) cells were cultured with desired concentration of H2O2 for 4 hours; the cell viability was detected by MTT. Data shown are means ± SEM of results from independent experiments in triplicate. *P < 0.05 compared with control cells. SH-SY5Y (c) or PC12 (d) cells were incubated with different potential AChE inhibitors (10 μM) for 12 hours and then stimulated with H2O2 (500 μM) for 4 hours, and the viability was detected by MTT. […] For cytotoxicity test, SH-SY5Y (e) or PC12 (f) cells were incubated with different potential AChE inhibitors (10 μM) for 12 hours, and the viability was detected by MTT. […]

[5] = test system: PC12 cells; experiment: Mitochondrial membrane potential (Rhodamine 123); format: cell-based, rat; conditions: pretreatment 12 h, H2O2 500 μM 2 h
Experimental: as §2, with “were” for “were stained with H2DCF-DA (10 μM) for 30 min. After 30 min staining, cells were”, “2 h. Rhodamine 123 (2 μM) was added to cells after” for “2 h, and”, “the treatment for 30 min at 37°C. Fluorescence” for “the fluorescence”, “of Rhodamine 123” for “of H2DCF-DA”, “Japan) and” for “Japan)”

[6] = test system: PC12 cells; experiment: Nuclear staining with Hoechst 33258 (apoptosis); format: cell-based, rat; conditions: pretreatment 12 h, H2O2 4 h
Experimental: (§5) SH-SY5Y cells and PC12 cells (1 × 10^4 cells/well) in 24-well plates were preincubated with or without test chemicals for 12 hours and subsequently stimulated with H2O2 for the 4 hours. The nuclear morphology of apoptotic cells was measured by Hoechst 33258 nuclear staining according to the manufacturer's instructions. The nuclear morphological change was observed under a fluorescence microscope (Nikon Live Cell Imaging System Ti-E, Japan) using excitation/emission of 360/460 nm.

[7] = test system: PC12 cells; experiment: MTT cell viability, H2O2-induced cell death; format: cell-based, rat
Experimental: (§6) Human neuroblastoma SH-SY5Y cells were from ATCC (Manassas, VA, usa) and maintained in DMEM/F-12 containing 10% FBS and maintained at 37°C with 95% humidified air and 5% CO2. Rat adrenal medulla pheochromocytoma PC12 cells were from ATCC (Manassas, VA, USA) and maintained in DMEM containing 10% FBS at 37°C with 95% humidified air and 5% CO2.
as §3

[8] = test system: PC12 cells; experiment: Cytotoxicity test by MTT without H2O2; format: cell-based, rat; conditions: 10 μM, 12 h, no H2O2
Experimental: as §3, §4

[9] = test system: PC12 cells; experiment: Intracellular ROS measurement (H2DCF-DA); format: cell-based, rat; conditions: acetylshikonin 5 and 10 μM 12 h, H2O2 500 μM 2 h
Experimental: as §2

[10] = test system: SH-SY5Y cells; experiment: Nuclear staining with Hoechst 33258 (apoptosis); format: cell-based, human; conditions: pretreatment 12 h, H2O2 4 h
Experimental: as §5

[11] = test system: Bcl-2, Bax, p53, caspase-3 in PC12 cells; experiment: Western blot of apoptosis-related proteins; format: cell-based, rat; conditions: pretreatment 12 h, H2O2 500 μM 1 h
Experimental: as §1

[12] = test system: SH-SY5Y cells; experiment: Mitochondrial membrane potential (Rhodamine 123); format: cell-based, human; conditions: pretreatment 12 h, H2O2 500 μM 2 h
Experimental: as §2, with “were” for “were stained with H2DCF-DA (10 μM) for 30 min. After 30 min staining, cells were”, “2 h. Rhodamine 123 (2 μM) was added to cells after” for “2 h, and”, “the treatment for 30 min at 37°C. Fluorescence” for “the fluorescence”, “of Rhodamine 123” for “of H2DCF-DA”, “Japan) and” for “Japan)”

[13] = test system: SH-SY5Y cells; experiment: MTT cell viability, H2O2-induced cell death; format: cell-based, human
Experimental: as §6, §3

[14] = test system: Bcl-2, Bax, p53, caspase-3 in SH-SY5Y cells; experiment: Western blot of apoptosis-related proteins; format: cell-based, human; conditions: pretreatment 12 h, H2O2 500 μM 1 h
Experimental: as §1

[15] = molecular target: T1, human recombinant AChE (Homo sapiens, UniProt P22303); experiment: AChE inhibition, Ellman assay; format: biochemical; conditions: 37°C
T1 construct: made in house
T1 sequence (P22303 32-614): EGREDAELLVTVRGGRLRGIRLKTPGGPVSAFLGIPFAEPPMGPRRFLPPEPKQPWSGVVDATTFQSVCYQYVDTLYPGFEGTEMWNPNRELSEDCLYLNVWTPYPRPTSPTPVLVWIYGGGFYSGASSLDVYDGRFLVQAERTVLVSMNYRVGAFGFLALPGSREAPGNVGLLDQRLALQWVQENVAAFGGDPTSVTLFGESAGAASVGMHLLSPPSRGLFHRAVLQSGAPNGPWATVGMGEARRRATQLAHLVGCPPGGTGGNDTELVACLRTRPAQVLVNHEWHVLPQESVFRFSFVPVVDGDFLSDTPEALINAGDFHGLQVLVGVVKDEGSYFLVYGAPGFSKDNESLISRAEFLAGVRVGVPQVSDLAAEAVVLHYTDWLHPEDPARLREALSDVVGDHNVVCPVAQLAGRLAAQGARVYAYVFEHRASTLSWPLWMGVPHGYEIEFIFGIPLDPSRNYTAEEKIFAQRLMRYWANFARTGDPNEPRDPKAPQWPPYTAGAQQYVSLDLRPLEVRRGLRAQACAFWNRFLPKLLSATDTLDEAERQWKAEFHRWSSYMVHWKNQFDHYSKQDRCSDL
Experimental: Candidate phytochemicals dissolved in DMSO were tested for AChE inhibitory activity by the Ellman assay with minor modifications. Ten μL of human recombinant AChE (prepared in-house) and 1 μL of drug were added into 190 μL of PBS buffer (100 mM, pH 7.4) and incubated in a 96-well plate at 37°C for 10 min. […] After 10 min incubation with the substrate, the optical densities were measured in a 96-well plate reader at 412 nm. The optical density was inversely proportional to the inhibitory activity. By contrast, a blank control without the tested compound was also performed in parallel; the normal hydrolytic rate of the enzyme can be represented by the blank control. Each assay was performed in triplicate.
The percentage inhibitory activities of the various compounds were calculated by comparison with the positive control and the blank control. […] Data analysis was performed with Prism software. Inhibitory effects were expressed as IC50 value calculated by regression analysis.

[16] = acetylshikonin 1–10 μM 12 h, then H2O2 500 μM 4 h
[17] = test chemical 10 μM 12 h, then H2O2 500 μM 4 h
[18] = IC50, human recombinant AChE, pH 7.4
[19] = human recombinant AChE, pH 7.4, read-out: IC50
[20] = ZnPP 10 μM 2 h, acetylshikonin 12 h, H2O2 500 μM 4 h, MTT

## CC(=O)O[C@H](CC=C(C)C)C1=CC(=O)c2c(O)ccc(O)c2C1=O [Acetylshikonin]
[1]
  HO-1 expression: increased
[2]
  H2O2-induced ROS generation: statistically declined
[3]
  HO-1 expression: no impact
[4]
  Cytotoxicity in MTT assay: not observed
[5]
  H2O2-induced mitochondrial membrane potential loss: rescued by acetylshikonin in a dose-dependent manner
[6]
  H2O2-induced cell shrinkage and nuclear condensation (Hoechst 33258): dramatically ameliorated
[7]; [16]
  H2O2-induced cell death and morphology change, dose dependence: dose dependently attenuated
[7]; [17]
  H2O2-induced cell death (cell viability, MTT): highest viability
[8]
  Cytotoxicity in MTT assay: not observed
[9]
  H2O2-induced ROS generation: statistically declined
[10]
  H2O2-induced cell shrinkage and nuclear condensation (Hoechst 33258): dramatically ameliorated
[11]
  Bax and p53 expression: decreased
  Bcl-2 expression: increased expression
  H2O2-induced decreased caspase-3 and increased cleaved caspase-3: rescued by acetylshikonin in a dose-dependent manner
[12]
  H2O2-induced mitochondrial membrane potential loss: rescued by acetylshikonin in a dose-dependent manner
[13]; [16]
  H2O2-induced cell death and morphology change, dose dependence: dose dependently attenuated
[13]; [17]
  H2O2-induced cell death (cell viability, MTT): highest viability
[14]
  Bax and p53 expression: decreased
  Bcl-2 expression: increased expression
  H2O2-induced decreased caspase-3 and increased cleaved caspase-3: rescued by acetylshikonin in a dose-dependent manner
[15]; [18]
  IC50: 34.6 µM

## CC(C)=CCc1c2occc2c(O)c2ccc(=O)oc12 [Alloisoimperatorin]
[15]; [19]
  IC50: 20.7 µM

## O=C1c2cccc(O)c2C(=O)c2c(O)cc(CO)cc21 [Aloe-emodin]
[15]; [18]
  IC50: 26.8 µM

## Cc1cc(O)c2c(c1)C(=O)c1cccc(O)c1C2=O [Chrysophanol]
[15]; [18]
  IC50: 75.8 µM

## Cc1cc(O)c2c(c1)C(=O)c1cc(O)cc(O)c1C2=O [Emodin]
[15]; [18]
  IC50: 21.8 µM

## CC(C)=CCOc1c2occc2cc2ccc(=O)oc12 [Imperatorin]
[15]; human recombinant AChE, pH 7.4
  IC50: Undetected

## CC(C)=CCC(OC(=O)CC(C)C)C1=CC(=O)c2c(O)ccc(O)c2C1=O (stereo not shown) [Isovalerylshikonin]
[15]; [19]
  IC50: 82.4 µM

## COc1c2ccoc2c(OCC=C(C)C)c2oc(=O)ccc12 [Phellopterin]
[15]; [19]
  IC50: 177 µM

## O=C(O)c1cc(O)c2c(c1)C(=O)c1cccc(O)c1C2=O [Rhein]
[15]; [18]
  IC50: 237 µM

## CC(C)=CC[C@@H](O)C1=CC(=O)c2c(O)ccc(O)c2C1=O [Shikonin]
[15]; [18]
  IC50: 71.8 µM

## COc1c2occc2cc2ccc(=O)oc12 [Xanthotoxin]
[15]; human recombinant AChE, pH 7.4
  IC50: 133 µM

## C=CC1=C(C)c2cc3[n-]c(cc4[n-]c(cc5nc(cc1n2)C(C)=C5C=C)c(C)c4CCC(=O)O)c(CCC(=O)O)c3C.[Zn+2] [ZnPP, zinc protoporphyrin IX, reference compound]
[7]; [20]
  Effect of ZnPP on protective effects of acetylshikonin on H2O2-induced cell death: not observed
[13]; [20]
  Effect of ZnPP on protective effects of acetylshikonin on H2O2-induced cell death: reversed the protective effects

## CC(C)=CCC(OC(=O)C=C(C)C)C1=CC(=O)c2c(O)ccc(O)c2C1=O (stereo not drawn) [β,β-Dimethylacrylshikonin]
[15]; human recombinant AChE, pH 7.4
  IC50: 62.4 µM
